Structures can show the parent of a compound that is named as a salt.
biological target: T1, AF9-DOT1L interaction (Homo sapiens, UniProt P42568); test: AlphaLisa assay, AF9-DOT1L interaction; format: binding; conditions: MBP-protein 5 nM, biotinylated peptide 40 nM, 3 independent experiments with standard deviation, read-out: IC50 (μM) against the AF9-DOT1L interaction
T1 construct: human AF9 AHD domain (475–568); made in house; host or cells: E. coli BL21(DE3)
T1 sequence (P42568 475-568): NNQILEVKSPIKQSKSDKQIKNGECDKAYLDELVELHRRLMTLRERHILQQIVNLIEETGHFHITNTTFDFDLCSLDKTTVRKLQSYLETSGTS
Text: An AlphaLisa assay we previously developed was used for compound screening for inhibitors of the AF9-DOT1L interaction. The PPI takes the DOT1L-peptide coated donor beads and AF9 AHD coated acceptor beads together. The donor beads are illuminated with a laser beam (680 nm) to generate singlet oxygen radicals, which activate the adjacent acceptor beads to produce luminescence at 615 nm. When a compound can disrupt such PPI and separate the donor and acceptor beads, the highly unstable radicals are rapidly quenched by water without generating luminescence.
The cDNA for the human AF9 AHD domain (475–568) and ENL AHD domain (489–559) was synthesized (by Genscript, Piscataway, NJ, USA) and inserted into the pMAL c5X expression plasmid. The DOT1L peptide (Biotin-AHX-[…]) and AF4 peptide (Biotin-AHX-[…]) for the Alpha assay were purchased from Genscript.
Alpha assays were developed in our previous publication, using a Perkin-Elmer AlphaLisa anti-MBP kit, which contains streptavidin donor beads and anti-MBP acceptor beads. Briefly, the assay was performed using a MBP-protein (5 nM), a biotinylated peptide (40 nM), and increasing concentrations of a compound in 25 µL buffer (PBS with 0.5% BSA, pH 7.5) in 384-well plates according to the manufacturer’s protocol and measured with a Tecan SPARK microplate reader. Data were imported into Prism (version 5.0), and IC50 values from 3 independent experiments with standard deviation were obtained by using a standard dose-response curve fitting.

IC50	Compound
2.8 ± 0.2 µM	O=C(NCC1CCNCC1)c1cc2ccc(-c3ccc(N4CCCC4)cc3)cc2[nH]1 [Compound 3, 6-(4-(1-Pyrrolinylphenyl)-N-(piperidin-4-ylmethyl)-1H-indole-2-carboxamide hydrochloride]

same assay, conditions: compound at 5 μM

Compound	% Inhibition at 5 μM against the AF9-DOT1L interaction
5-(4-(Tert-butyl)phenyl)-N-(piperidin-4-ylmethyl)-benzo[b]thiophene-2-carboxamide hydrochloride [Compound 55]	45%

same assay, conditions: compound at 5 μM, read-out: % Inhibition at 5 μM against the AF9-DOT1L interaction

Compound	inhibition at 5 µM
CC(C)(C)c1ccc(-c2ccc3sc(C(=O)NCC4CCNCC4)cc3c2)cc1 [Compound 54, 5-(4-(Tert-butyl)phenyl)-N-(piperidin-4-ylmethyl)-benzo[b]thiophene-2-carboxamide hydrochloride]	33%
N#Cc1ccc(-c2ccc3sc(C(=O)NCC4CCNCC4)cc3c2)cc1 [Compound 53, 5-(4-Cyanophenyl)-N-(piperidin-4-ylmethyl)-benzo[b]thiophene-2-carboxamide hydrochloride]	23%
O=C(NCC1CCNCC1)c1cc2ccc(-c3ccc(OC(F)(F)F)cc3)cc2s1 [Compound 44, 6-(4-Trifluoromethoxylphenyl)-N-(piperidin-4-ylmethyl)-benzo[b]thiophene-2-carboxamide hydrochloride]	14%
N#Cc1ccc(-c2ccc3cc(C(=O)NCC4CCNCC4)sc3c2)cc1F [Compound 42, 6-(4-Cyano-3-fluorophenyl)-N-(piperidin-4-ylmethyl)-benzo[b]thiophene-2-carboxamide hydrochloride]	26%
CC(C)(C)c1ccc(-c2ccc3[nH]c(C(=O)NCC4CCNCC4)cc3c2)cc1 [Compound 19]	13%
N#Cc1ccc(-c2ccc3[nH]c(C(=O)NCC4CCNCC4)cc3c2)cc1F [Compound 20, 5-(3-Fluoro-4-cyanophenyl)-N-(piperidin-4-ylmethyl)-1H-indole-2-carboxamide hydrochloride]	8%
Cc1cc(C#N)ccc1-c1ccc2[nH]c(C(=O)NCC3CCNCC3)cc2c1 [Compound 21]	0%
CC(C)(C)c1cccc(-c2ccc3cc(C(=O)NCC4CCNCC4)[nH]c3c2)c1 [Compound 9, 6-(3-(tert-Butyl)phenyl)-N-(piperidin-4-ylmethyl)-1H-indole-2-carboxamide hydrochloride]	17%

Second part, the compound after the results:

inhibition at 5 µM	Compound
33%	O=C(NCC1CCNCC1)c1cc2ccc(-c3ccc4c(c3)OCCO4)cc2o1 [Compound 69, 6-(2,3-Dihydrobenzo[b][1,4]dioxin-6-yl)-N-(piperidin-4-ylmethyl)-benzofuran-2-carboxamide hydrochloride]
19%	CC(C)(C)c1ccc(-c2ccc3cc(C(=O)NCC4CCNCC4)sc3c2)cc1 [Compound 40, 6-(4-(Tert-butyl)phenyl)-N-(piperidin-4-ylmethyl)-benzo[b]thiophene-2-carboxamide hydrochloride]
~50%	O=C(NCC1CCNCC1)c1cc2ccc(-c3ccc(Cl)cc3)cc2s1 [Compound 48, 6-(4-Chlorophenyl)-N-(piperidin-4-ylmethyl)-benzo[b]thiophene-2-carboxamide hydrochloride]
23%	O=C(NCC1CCNCC1)c1cc2ccc(Nc3ccc(OC(F)(F)F)cc3)cc2o1 [Compound 75, 6-((4-Trifuluoromethoxyl)phenyl)amino)-N-(piperidin-4-ylmethyl)-benzofuran-2-carboxamide hydrochloride]
1%	O=C(NCC1CCNCC1)c1cc2ccc(-c3ccc(C(=O)N4CCCC4)cc3)cc2o1 [Compound 63, 6-(4-((Pyrrolidine-1-yl)carbonyl)phenyl)-N-(piperidin-4-ylmethyl)-benzofuran-2-carboxamide hydrochloride]
19%	CS(=O)(=O)c1ccc(-c2ccc3cc(C(=O)NCC4CCNCC4)oc3c2)cc1 [Compound 70, 6-(4-(Methylsulfonyl)phenyl)-N-(piperidin-4-ylmethyl)-benzofuran-2-carboxamide hydrochloride]
5.6%	O=C(NCC1CCNCC1)c1cc2ccc(-c3ccc(CCO)cc3)cc2[nH]1 [Compound 7]

— article PMC10650850, “Discovery, Structure–Activity Relationship and In Vitro Anticancer Activity of Small-Molecule Inhibitors of the Protein–Protein Interactions between AF9/ENL and AF4 or DOT1L” (Cancers, 2023)
